{"source": "paper PMC5361735", "about": "“Characterization and mechanisms of anti-influenza virus metabolites isolated from the Vietnamese medicinal plant Polygonum chinense” (BMC Complementary and Alternative Medicine, 2017)", "key": {"[1]": {"system": "A/Hong Kong/8/68 (H3N2, HK)", "test": "microbe, parasite or virus in culture", "details": "Influenza A virus, H3N2, MDCK, 72 h, read-out: EC50 HK"}, "in vitro": {"test": "in vitro", "details": "dog"}, "[2]": {"system": "influenza viruses PR8, HK and Lee", "test": "CPE inhibition assay, results stated over all strains", "type": "cell-based, influenza A and B viruses", "details": "for EC50: Influenza A virus, PR8, range over the strains (and compounds named)"}, "[3]": {"system": "A/Hong Kong/8/68 (H3N2, HK)", "details": "for EC50: read-out: EC50 HK; for S.I. (CC50/EC50) HK: Table 2"}, "B/Lee/40 (Lee) [4]": {"system": "B/Lee/40 (Lee)", "details": "for S.I. (CC50/EC50) Lee: Table 2"}, "B/Lee/40 (Lee) [5]": {"system": "B/Lee/40 (Lee)", "test": "microbe, parasite or virus in culture", "details": "Influenza B virus, MDCK, 72 h, read-out: EC50 Lee"}, "[6]": {"system": "A/Puerto Rico/8/34 (H1N1, PR8)", "test": "microbe, parasite or virus in culture", "details": "Influenza A virus, MDCK, 72 h, read-out: EC50 PR8"}, "MDCK cells [7]": {"system": "MDCK cells", "test": "Cell viability (MTT) of mock-infected MDCK cells", "details": "300 μg/mL"}, "[8]": {"test": "Cell viability (MTT) of mock-infected MDCK cells", "details": "dog, mock-infected MDCK cells"}, "[9]": {"system": "A/Puerto Rico/8/34 (H1N1, PR8)", "details": "Table 2"}, "[10]": {"system": "influenza viruses PR8, HK and Lee", "details": "for inhibition of plaque formation: MOI 0.001, 3 days, crystal violet"}, "PR8 virus (viral NP)": {"system": "PR8 virus (viral NP)", "type": "cell-based, influenza A virus"}, "PR8": {"system": "PR8", "test": "Time-of-addition plaque assay", "type": "cell-based, influenza A virus"}, "MDCK cells [11]": {"system": "MDCK cells", "details": "dog, 3 days, 300 μg/mL"}, "[12]": {"details": "CPE inhibition assay, PR8, HK and Lee"}}, "note": "Like-named read-outs stand apart in the source and are kept apart here.", "data": [{"compound": "CCC(CC)O[C@@H]1C=C(C(=O)O)C[C@H](N)[C@H]1NC(C)=O", "note": "[OSV-C, oseltamivir carboxylate, reference compound]", "values": [{"measurement": "EC50", "setting": "[1]", "result": 0.005, "unit": "µM"}, {"measurement": "CC50 at 3 days", "setting": "in vitro", "result": "> 100", "unit": "µM"}, {"measurement": "anti-influenza activity in words", "setting": "[2]; [12]", "result": "efficiently inhibited the replication of all viral strains tested"}, {"measurement": "EC50", "setting": "[3]", "result": "< 0.005", "unit": "µM"}]}, {"compound": "O=c1c(O)c(-c2ccc(O)c(O)c2)oc2cc(O)cc(O)c12", "note": "[PC1, Quercetin]", "values": [{"measurement": "EC50", "setting": "[1]", "result": 13.1, "unit": "µg/mL"}, {"measurement": "S.I. (CC50/EC50) Lee", "setting": "B/Lee/40 (Lee) [4]", "result": "> 20.0"}, {"measurement": "EC50", "setting": "B/Lee/40 (Lee) [5]", "result": 15, "unit": "µg/mL"}, {"measurement": "S.I. (CC50/EC50) HK", "setting": "[3]", "result": "> 22.9"}, {"measurement": "EC50", "setting": "[6]", "result": 12.6, "unit": "µg/mL"}, {"measurement": "cytotoxicity to MDCK cells at the highest concentration", "setting": "MDCK cells [7]", "result": "without cytotoxicity"}, {"measurement": "CC50 at 3 days", "setting": "[8]", "result": "> 300", "unit": "µg/mL"}]}, {"compound": "COC(=O)c1ccc(O)c(O)c1", "note": "[PC2, Protocatechuic acid methyl ester]", "values": [{"measurement": "EC50", "setting": "[1]", "result": "> 24.1", "unit": "µg/mL"}, {"measurement": "S.I. (CC50/EC50) Lee", "setting": "B/Lee/40 (Lee) [4]", "result": 2.2}, {"measurement": "EC50", "setting": "B/Lee/40 (Lee) [5]", "result": 11.1, "unit": "µg/mL"}, {"measurement": "CC50 at 3 days", "setting": "in vitro", "result": 24.1, "unit": "µg/mL"}, {"measurement": "EC50", "setting": "[6]", "result": "> 24.1", "unit": "µg/mL"}]}, {"compound": "O=C(O)c1cc(O)c(O)c(O)c1", "note": "[PC3, Gallic acid]", "values": [{"measurement": "EC50", "setting": "[1]", "result": 17.5, "unit": "µg/mL"}, {"measurement": "CC50", "setting": "in vitro", "result": 111, "unit": "µg/mL"}]}, {"compound": "O=c1oc2c(O)c(O)cc3c(=O)oc4c(O)c(O)cc1c4c23", "note": "[PC5, Ellagic acid]", "values": [{"measurement": "EC50", "setting": "[1]", "result": 62.4, "unit": "µg/mL"}, {"measurement": "S.I. (CC50/EC50) PR8", "setting": "[9]", "result": "> 3.7"}, {"measurement": "inhibition of plaque formation", "setting": "[10]", "result": "inhibited plaque formation of influenza A and B viruses in a dose-dependent manner"}, {"measurement": "effect on viral NP production/localization", "setting": "PR8 virus (viral NP)", "result": "inhibit the early steps"}, {"measurement": "S.I. (CC50/EC50) Lee", "setting": "B/Lee/40 (Lee) [4]", "result": "> 3.8"}, {"measurement": "EC50", "setting": "B/Lee/40 (Lee) [5]", "result": 79.2, "unit": "µg/mL"}, {"measurement": "EC50", "setting": "[2]; CPE inhibition assay", "result": "14.7 to 81.1", "unit": "µg/mL"}, {"measurement": "S.I. (CC50/EC50) HK", "setting": "[3]", "result": "> 4.8"}, {"measurement": "EC50", "setting": "[6]", "result": 81.1, "unit": "µg/mL"}, {"measurement": "CC50 at 3 days", "setting": "[8]", "result": "> 300", "unit": "µg/mL"}, {"measurement": "effect on plaques, co-treatment", "setting": "PR8", "result": "plaque reduction was more distinct"}, {"measurement": "effect on plaques, post-treatment", "setting": "PR8", "result": "reduced viral plaque titers"}, {"measurement": "effect on plaques, pre-treatment", "setting": "PR8", "result": "reduced viral plaque titers"}]}, {"compound": "CC[C@H](CC[C@@H](C)[C@H]1CC[C@H]2[C@@H]3CC=C4C[C@@H](O)CC[C@]4(C)[C@H]3CC[C@]12C)C(C)C", "note": "[PC6, β-Sitosterol]", "values": [{"measurement": "EC50", "setting": "[1]", "result": 300, "unit": "µg/mL"}, {"measurement": "S.I. (CC50/EC50) PR8", "setting": "[9]", "result": 1.1}, {"measurement": "EC50", "setting": "B/Lee/40 (Lee) [5]", "result": "> 300", "unit": "µg/mL"}, {"measurement": "CC50", "setting": "in vitro", "result": 300, "unit": "µg/mL"}, {"measurement": "anti-influenza activity in words", "setting": "[2]; [12]", "result": "marginal or no anti-influenza activity"}, {"measurement": "S.I. (CC50/EC50) HK", "setting": "[3]", "result": 1.0}, {"measurement": "EC50", "setting": "[6]", "result": 282, "unit": "µg/mL"}]}, {"compound": "COC(=O)c1cc(O)c(O)c(O)c1", "note": "[PC7, Methyl gallate]", "values": [{"measurement": "EC50", "setting": "[1]", "result": 17.1, "unit": "µg/mL"}, {"measurement": "S.I. (CC50/EC50) PR8", "setting": "[9]", "result": "> 16.6"}, {"measurement": "cytotoxicity seen as faint crystal violet background", "setting": "[10]; MDCK cells, concentrations higher than 33 μg/mL", "result": "marginal cytotoxicity"}, {"measurement": "inhibition of plaque formation", "setting": "[10]", "result": "inhibited plaque formation of influenza A and B viruses in a dose-dependent manner"}, {"measurement": "reduction of cell viability", "setting": "MDCK cells [11]", "result": 49, "unit": "%"}, {"measurement": "effect on viral NP production/localization", "setting": "PR8 virus (viral NP)", "result": "inhibit the early steps"}, {"measurement": "S.I. (CC50/EC50) Lee", "setting": "B/Lee/40 (Lee) [4]", "result": "> 15.6"}, {"measurement": "EC50", "setting": "B/Lee/40 (Lee) [5]", "result": 19.2, "unit": "µg/mL"}, {"measurement": "CC50 at 3 days", "setting": "in vitro", "result": "> 300", "unit": "µg/mL"}, {"measurement": "EC50", "setting": "[2]; CPE inhibition assay", "result": "14.7 to 81.1", "unit": "µg/mL"}, {"measurement": "S.I. (CC50/EC50) HK", "setting": "[3]", "result": "> 17.5"}, {"measurement": "EC50", "setting": "[6]", "result": 18.1, "unit": "µg/mL"}, {"measurement": "effect on plaques, pre-treatment", "setting": "PR8", "result": "no inhibition"}, {"measurement": "plaque reduction, co-treatment", "setting": "PR8", "result": "about 35%"}, {"measurement": "reduction of viral infectivity, post-treatment", "setting": "PR8", "result": 15, "unit": "%"}]}, {"compound": "O=C(O)/C=C/c1ccc(O)c(O)c1", "note": "[PC8, Caffeic acid]", "values": [{"measurement": "EC50", "setting": "[1]", "result": 32.1, "unit": "µg/mL"}, {"measurement": "S.I. (CC50/EC50) PR8", "setting": "[9]", "result": "> 7.9"}, {"measurement": "inhibition of plaque formation", "setting": "[10]", "result": "inhibited plaque formation of influenza A and B viruses in a dose-dependent manner"}, {"measurement": "effect on viral NP production/localization", "setting": "PR8 virus (viral NP)", "result": "did not affect NP signal intensity or its localization"}, {"measurement": "S.I. (CC50/EC50) Lee", "setting": "B/Lee/40 (Lee) [4]", "result": "> 20.4"}, {"measurement": "EC50", "setting": "B/Lee/40 (Lee) [5]", "result": 14.7, "unit": "µg/mL"}, {"measurement": "EC50", "setting": "[2]; CPE inhibition assay", "result": "14.7 to 81.1", "unit": "µg/mL"}, {"measurement": "S.I. (CC50/EC50) HK", "setting": "[3]", "result": "> 9.4"}, {"measurement": "EC50", "setting": "[6]", "result": 37.8, "unit": "µg/mL"}, {"measurement": "cytotoxicity to MDCK cells at the highest concentration", "setting": "MDCK cells [7]", "result": "without cytotoxicity"}, {"measurement": "CC50 at 3 days", "setting": "[8]", "result": "> 300", "unit": "µg/mL"}, {"measurement": "effect on plaques, co-treatment", "setting": "PR8", "result": "barely showed the efficacy at the maximum concentration"}, {"measurement": "effect on plaques, post-treatment", "setting": "PR8", "result": "no significant antiviral activity"}, {"measurement": "effect on plaques, pre-treatment", "setting": "PR8", "result": "no significant antiviral activity"}]}, {"compound": "NC(=O)c1ncn([C@@H]2O[C@H](CO)[C@@H](O)[C@H]2O)n1", "note": "[RBV, ribavirin, reference compound]", "values": [{"measurement": "EC50", "setting": "[1]", "result": 20.5, "unit": "µM"}, {"measurement": "EC50", "setting": "B/Lee/40 (Lee) [4]; read-out: EC50 Lee", "result": 17, "unit": "µM"}, {"measurement": "EC50", "setting": "B/Lee/40 (Lee) [5]", "result": 26.6, "unit": "µM"}, {"measurement": "anti-influenza activity in words", "setting": "[2]", "result": "efficiently inhibited the replication of all viral strains tested"}, {"measurement": "EC50", "setting": "[3]", "result": 15.5, "unit": "µM"}]}]}
